Test results: patent publication US8877206B2, “Stimulation of an immune response by cationic lipids” (PDS Biotechnology Corporation, priority 2007, dated 2014)
Where two headings read alike, the source gives them in different places.

What was measured:
[1] = tested on: BMDC; assay: CCL2 release from BMDC (ELISA); type: cell-based, C57BL/6 mice
[2] = tested on: DC2.4 dendritic cells; details: cited from earlier work; for Potency to stimulate expression of CD 80 vs lipids with longer or saturated acyl chains: ethyl phosphocholine head group lipids, FIG. 14B; for Expression of CD80/CD86: FIG. 14A, disclosed in U.S. Pat. No. 7,303,881
[3] = tested on: bone marrow derived dendritic cells (BMDC); type: cell-based, mouse
[4] = tested on: TC-1 tumor; assay: TC-1 HPV-positive tumor growth in treated mice; type: in vivo, C57BL/6 mice; details: 100 nmole dose, without E7 peptide
[5] = tested on: DC2.4 cells; assay: Affymetrix microarray of DC2.4 cells treated with DOTAP liposomes; type: cell-based, mouse
[6] = tested on: BMDC; assay: RT-PCR of chemokine mRNA in BMDC; type: cell-based, mouse; details: 50 μM liposomes for 16 h; FIG. 15B
Experimental: Total RNA was isolated from BMDC by Rneasy Mini Kit from Qiagen according to the manufacturer's instruction. Following digestion with Dnase for 30 min at 37° C., the total RNA concentration was determined by spectrophotometry. Primer pairs for mouse CCL2, CCL3, CCL4 and β-actin (forward primer 5′-[…]-3′ [SEQ. ID. NO. 3] and reverse primer 5′-[…]-3′ [SEQ. ID. NO. 4] for CCL2; forward primer 5′-[…]-3′ [SEQ. ID. NO. 5] and reverse primer 5′-[…]-3′ [SEQ. ID. NO. 6] for CCL3; forward primer 5′-[…]-3′ [SEQ. ID. NO. 7] and reverse primer 5′-[…]-3′ [SEQ. ID. NO. 8] and reverse primer 5′-[…]-3′ [SEQ. ID. NO. 9] for β-actin [Wang H., et al., Potential involvement of monocyte chemoattractant protein (MCP)-1/CCL2 in IL-4-mediated tumor immunity through inducing dendritic cell migration into the draining lymph nodes, Int Immunopharmacol 3:627-42, (2003)] were synthesized by IDT technology. RT-PCR was performed using the one-step RT-PCR kit (commercially available from Invitrogen of Carlsbad, Calif.) where reverse transcription and DNA amplification occur in the same reaction. Briefly, 1 μg of total RNA was used as a template in a reaction that included the appropriate primers in the presence of both reverse transcriptase and Taq polymerase. The mixture was incubated at 45° C. for 30 min and cycled 25 times at 94° C. for 30 s, 55° C. for 30 s, and 72° C. for 2 min. […]

[7] = Western blot of ERK and p38 activation in BMDC; type: cell-based, mouse
Experimental: (§1) BMDC cell lysate was collected after different treatments and total cellular protein was resolved on polyacrylamide/SDS gels and then transferred to polyvinylidene difluoride membranes. The membranes were blocked with 5% nonfat milk in Tris-buffered saline for 1 h and then incubated from 1 h to overnight with primary antibody. After washing the membranes with Tris-buffered saline three times, the membranes were incubated horseradish peroxidase conjugated secondary antibody for 1 h. The peroxidase activity associated with the protein bands was detected by enhanced chemiluminescence using ECL plus (Amershan International) followed by autoradiography.

[8] = tested on: ERK; assay: Western blot of ERK and p38 activation in BMDC; type: cell-based, mouse; details: for Effect on DOTAP-induced ERK phosphorylation: FIG. 19C
Experimental: as §1

[9] = tested on: murine bone marrow derived dendritic cells (BMDC); details: Vangesseri et al 2006; cited from earlier work
[10] = tested on: draining lymph node cells; assay: Uptake of NBD-DOTAP and dendritic cell activation/migration to the draining lymph node; type: in vivo, mice
Experimental: Naïve mice (n=4-6) were injected with PBS control (FIGS. 7 A, C and E) or DOTAP/E7 containing 100 nmols total lipid with 0.5% 1-Oleoyl-2-[6-[(7-nitro-2-1,3-benzoxadiazol-4-yl)amino]hexanoyl]-3-trimethylammonium propane] (“NBD-DOTAP”) (FIGS. 7 B, D, and F). At 4 h after the injection, draining lymph node cells were prepared and stained with appropriate antibodies to surface markers. The co-expression of NBD and CD11c (FIGS. 7 A and B) or CD86 (FIGS. 7 C and D) were analyzed within total lymph node cells whereas the co-expression of NBD and CD8 (FIGS. 7 E and F) were gated and analyzed within CD3^+ population. The numbers represented the percentages of cells in the quadrants. Draining lymph node cells were harvested and analyzed by flow cytometry at different time points post injection. The numbers of CD11c^+ cells among total lymph node cells increased by more than 2.5-fold compared to untreated mice 4 h after NBD-DOTAP/E7 injection (FIGS. 7 A and B). […] NBD uptake by other cell types such as T lymphocytes was also investigated by costaining with anti-CD3, CD4 and CD8 antibodies.

[11] = BMDC stimulated 20 h at 37° C., supernatant ELISA, FIG. 1

CCCCCCCC/C=C\CCCCCCCC(=O)OC[C@H](CO)OC(=O)CCCCCCC/C=C\CCCCCCCC [DOG]
MCP-1/CCL2 release from BMDC by liposomes ([1]; FIG. 16): did not

CCCCCCCC/C=C\CCCCCCCC(=O)OC[C@H](COP(=O)(O)OCC(O)CO)OC(=O)CCCCCCC/C=C\CCCCCCCC (stereo partly drawn) [DOPG]
MCP-1/CCL2 release from BMDC by liposomes ([1]; FIG. 16): did not

CCCCCCCCCCCCCC(=O)OCC(COP(=O)(OCC)OCC[N+](C)(C)C)OC(=O)CCCCCCCCCCCCC (stereo not drawn) [DMEPC, 1,2-dimyristoyl-sn-glycero-3-ethylphosphocholine]
Potency to stimulate expression of CD 80 vs lipids with longer or saturated acyl chains [2]: more potent

CCCCCCCC/C=C\CCCCCCCC(=O)OCC(C[N+](C)(C)C)OC(=O)CCCCCCC/C=C\CCCCCCCC (stereo not drawn) [DOTAP, 1,2-dioleoyl-3-trimethylammonium propane]
IL-10 induction [3]: no induction of IL-10
IL-12 production [3, 11]: production increased in response to DOTAP concentration
TNF-α production [3, 11]: did not induce significant levels
TC-1 tumor growth [4]: did not show significant inhibition of tumor growth
CD11c mRNA ([5]; 50 μM DOTAP): induced
IL-1 receptor antagonist (IL1RA) mRNA ([5]; 50 μM DOTAP treatment for 16 h): increased
IL-1 β mRNA ([5]; 50 μM DOTAP treatment for 16 h): decreased
mRNA of chemokines CCL2, CCL3, CCL4 ([5]; 50 μM DOTAP, FIG. 15A): induced overexpression of several chemokines
CCL2 and CCL4 mRNA (RT-PCR) [6]: upregulated
CCL2 release [1]: induced significant amounts of CCL2
Concentration at which maximum CCL2 induction was reached [1]: 45 to 75 µM
MCP-1/CCL2 release from BMDC by liposomes [1]: induced the MCP-1/CCL2 release
Phosphorylation of IκB and subsequent degradation [7]: no phosphorylation of IκB
p38 activation [7]: slightly activated
Time phospho-ERK stayed at a high level [8]: at least 40 min
Time to ERK phosphorylation [8]: ≤ 10 min
Expression of co-stimulatory molecules CD80 and CD86 [9]: activated for the expression of the co-stimulatory molecules

CCCCCCCC/C=C\CCCCCCCC(=O)OC[C@@H](COP(=O)(OCC)OCC[N+](C)(C)C)OC(=O)CCCCCCC/C=C\CCCCCCCC (stereo partly drawn) [DOEPC, 1,2-dioleoyl-sn-glycero-3-ethylphosphocholine]
CCL2 and CCL4 mRNA (RT-PCR) [6]: upregulated
MCP-1/CCL2 release from BMDC by liposomes [1]: induced the MCP-1/CCL2 release
Potency to stimulate expression of CD 80 vs lipids with longer or saturated acyl chains [2]: more potent
Expression of co-stimulatory molecules CD80 and CD86 [9]: activated for the expression of the co-stimulatory molecules

GF109203X [reference compound]
Effect on DOTAP-induced ERK phosphorylation [8]: no effect

CCCCCCCC/C=C\CCCCCCCC(=O)OC[C@H](COP(=O)([O-])OCC[N+](C)(C)C)OC(=O)CCCCCCC/C=C\CCCCCCCC [DOPC, dioleoyl phosphatidylcholine]
MCP-1/CCL2 release from BMDC by liposomes [1]: did not

CCCCCCCC/C=C\CCCCCCCC(=O)OC[C@H](COP(=O)(O)OC[C@H](N)C(=O)O)OC(=O)CCCCCCC/C=C\CCCCCCCC [DOPS]
MCP-1/CCL2 release from BMDC by liposomes [1]: did not

CCCCCCCC/C=C\CCCCCCCC(=O)OCC(CN(C)C)OC(=O)CCCCCCC/C=C\CCCCCCCC (stereo not drawn) [DODAP, dioleoyl dimethylaminopropane]
MCP-1/CCL2 release from BMDC by liposomes [1]: did not induce the activity

pertussis toxin [reference compound]
Effect on DOTAP-induced ERK phosphorylation [8]: slight inhibitory effect

CCCCCCCC/C=C\CCCCCCCC(=O)OCC(C[N+](C)(C)C)OC(=O)CCCCCNc1ccc([N+](=O)[O-])c2nonc12 (stereo not drawn) [NBD-DOTAP]
NBD uptake by CD3+ cells ([10]; FIG. 7E, F): no NBD uptake
Share taken up by dendritic cells ([10]; soon after immunization): ~80%

CCCCCCCCCCCCCCOC(=O)CC[C@H](NC(=O)[C@@H](N)CCCCN)C(=O)OCCCCCCCCCCCCCC [DMKD, O,O′-dimyristyl-N-lysyl-glutamate]
Expression of CD80/CD86 [2]: strongly stimulated

CC(C)(C)n1nc(-c2ccc(Cl)cc2)c2c(N)ncnc21 [PP2, reference compound]
Effect on DOTAP-induced CCL2 production ([1]; pre-incubated 20 min, then 75 μM DOTAP 24 h, PD 20 μM, SB 10 μM, U 10 μM, PTx 200 ng/mL, PP2 10 μM, Wort 200 nM, GF 200 nM, FIG. 18): no inhibitory effect
Effect on DOTAP-induced ERK phosphorylation [8]: no effect

CCCCCCCCCCCCCCOC(=O)C[C@H](NC(=O)[C@@H](N)CCCCN)C(=O)OCCCCCCCCCCCCCC [DMKE, O,O′-dimyristyl-N-lysyl aspartate]
Expression of CD80/CD86 [2]: strongly stimulated

CCCCCCCCCCCC(=O)OC[C@H](COP(=O)(OCC)OCC[N+](C)(C)C)OC(=O)CCCCCCCCCCC (stereo partly drawn) [DLEPC, 1,2-dilauroyl-sn-glycero-3-ethylphosphocholine]
Potency to stimulate expression of CD 80 vs lipids with longer or saturated acyl chains [2]: more potent
